In patent US20240165029A1, “ASSISTED LOADING OF HYDROPHOBIC MOLECULES INTO LIPOSOMES” (UNIVERSITY OF CONNECTICUT, priority 2021, published 2024):
“Also recorded” adds a separate entry of the source. Blank lines part the entries; values can stand above or below the compound they belong to.

Assays:
mBCO2 [1] = biological target: T1, mBCO2 (Mus musculus, UniProt Q99NF1); assay: Acyl-RAC assay of mBCO2 palmitoylation in HEK293F cells; format: cell-based; conditions: for mBCO2 palmitoylation (protein band in HAM-treated sample): HEK293F cells, 5 h
T1 construct: expressed in transfected cells; host or cells: HEK293F (Human 293F FreeStyle) cells
T1 sequence (Q99NF1 1-532): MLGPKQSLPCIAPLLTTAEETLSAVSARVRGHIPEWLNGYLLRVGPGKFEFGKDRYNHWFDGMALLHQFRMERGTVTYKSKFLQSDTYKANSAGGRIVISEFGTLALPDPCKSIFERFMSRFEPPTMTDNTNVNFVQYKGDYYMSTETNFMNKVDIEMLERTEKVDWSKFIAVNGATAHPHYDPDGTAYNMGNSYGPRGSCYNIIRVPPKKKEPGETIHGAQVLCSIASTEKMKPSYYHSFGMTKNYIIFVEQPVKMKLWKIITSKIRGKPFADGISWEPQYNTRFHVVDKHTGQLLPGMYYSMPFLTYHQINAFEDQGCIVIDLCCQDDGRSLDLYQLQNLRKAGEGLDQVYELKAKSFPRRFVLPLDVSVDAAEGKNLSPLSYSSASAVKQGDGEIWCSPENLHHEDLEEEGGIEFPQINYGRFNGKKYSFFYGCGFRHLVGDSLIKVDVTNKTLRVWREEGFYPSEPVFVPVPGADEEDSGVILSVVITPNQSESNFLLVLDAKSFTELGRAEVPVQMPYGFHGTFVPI
Experimental: previously published protocol. Briefly, a typical transfection experiment used 3×10^7 cells in 28 mL of FreeStyle medium mixed with 2 mL of OptiMem-I reduced serum medium containing 40 μL 293fectin transfection reagent (Invitrogen) and 20 μg of each expression plasmid under study. Cells were grown with shaking at 125 rpm on an orbital shaker platform in a 37° C. incubator with a humidified atmosphere of 8% CO2 for 48 h total. In total, 200 μl of vesicles with xanthophylls were added, incubating for 5 hr under standard growth conditions.
For cell lysis and the Acyl-RAC assay, the same protocol as previously described in detail, with slight modifications, was used. BCO2-overexpressing HEK293F cells were washed with 1X-PBS and resuspended in lysis buffer (50 mM HEPES (pH 7.4) containing 150 mM NaCl, 5 mM EDTA, 1% glycerol, and 1× complete protease inhibitor cocktail (Roche Diagnostics)). Resuspended cells were lysed using N2 cavitation followed by centrifugation at 900×g for 10 min at 4° C. to remove the cell debris and nuclei. The clarified supernatant was then subjected to centrifugation at 20,000×g for 30 min at 4° C. to obtain heavy membrane (mitochondrial) pellet and post-mitochondrial supernatant (light membrane and cytosol) fractions. Typically, a 1000 μg amount of resuspended heavy membrane pellet protein (resuspended in lysis buffer containing 0.1% Triton X-100) was used for palmitoylation detection assay. Briefly, free cysteine sulfhydryl (—SH) groups were blocked with 0.5% (v/v) S-methyl methanethiosulfonate (MMTS) containing blocking buffer for 15 min at 40 ° C. The blocked protein samples were then subjected to acetone protein precipitation. The protein pellet was then resuspended in 550 μl 100 mM HEPES containing 5 mM EDTA and 1% SDS (v/v). The samples were then divided into two 250 μl aliquots (containing 400 μg protein amount) and the remaining 50 μl was used as an input. The samples were treated with 250 mM hydroxylamine (NH2OH, HAM) or control (250 mM NaCl). To capture proteins with free —SH groups, each sample was mixed with 10 mg activated thiol-sepharose 4B beads (Sigma) and incubated for 2 h at room temperature with continuous end-over-end rotation. After incubation, the beads were washed, and bound proteins were eluted by boiling the beads with an aliquot of 50 μL elution sample buffer. The input and eluted fractions from “HAM” and “control” samples were separated by SDS-PAGE and analyzed by Western blotting.
(§1) It was previously established that mBCO2 in eukaryotic HEK293F cells is palmitoylated. […] Knowing that BCO2 cleaves xanthophylls, palmitoylation assays were ran to study the palmitoylation status of mBCO2 in the presence of xanthophylls. First, xanthophylls were attempted to be delivered with the detergent Tween 40 [50]. […] Therefore, a new method to deliver xanthophylls without detergents using unilamellar LUVs as described above was established. The content of xanthophylls in the HEK293F cells after 5 h of treatment was similar to a Tween 40 delivery system in ARPE-19 cells (1-2%) (FIG. 9A-9B). Subsequently, the acyl-RAC method was used as described previously. The membrane fraction of HEK293F cells expressing mBCO2 was subjected to treatment with hydroxylamine (+HAM) and an equal portion of the fraction was treated with 250 mM NaCl (−HAM) which served as control.

mBCO2 [2] = biological target: T1, mBCO2; assay: Immunocolocalization of mBCO2 in COS7 cells by confocal microscopy; format: cell-based; conditions: for percent of colocalization of mBCO2 with nuclear marker: 5 h, lutein 0.15 μM, violaxanthin 0.6 μM, compared with zeaxanthin 0.45 μM
Experimental: BCO2-overexpressing COS7 cells (1×10^6 cells/mL) seeded on poly L-lysine coated 18 mm coverslips were analyzed by immunofluorescence microscopy to determine the localization of BCO2 protein in different subcellular organelles as described previously. Briefly, COS7 cells were transfected with 20 μg of BCO2-Lumio V5 tag plasmid using Fugene® 6 transfection reagent (1:6 DNA: Fugene 6 ratio). After 43 h, BCO2-transfected cells were treated with substrate-encapsulated LUVs for 5 h. Fixed cells were immunostained with V5 monoclonal and polyclonal antibodies alone and together with primary antibodies specific for different subcellular organelles (ER (PDIA3), Golgi (MAN2A1), mitochondria (COX IV and HSP60), and peroxisomes (PMP70)), followed by Alexa fluorophore-conjugated secondary antibodies (Invitrogen). Cell nuclei were stained with DAPI (1 μg/μL solution; Sigma). Slides were then visualized with a Zeiss LSM 700 confocal microscope using a 40× oil immersion lens/1.4-NA and Zeiss ZEN software. Pearson's correlation coefficient values were determined for analysis of the co-localization of BCO2 protein and different organelles and represented as mean±standard deviation. For nuclear co-localization of BCO2 protein, the Pearson's correlation coefficient of BCO2 with DAPI-stained nuclei was measured using the results from three independent experiments: single labeling of BCO2 “alone”, double labeling of BCO2 with mitochondrial markers COX IV and HSP60. Results shown were typical of a minimum of three independent experiments with 5-10 fields of view containing on average 1-10 cells/field of view.
Next, BCO2 localization by immunofluorescence microscopy was examined using mBCO2 transfected COST cells with various organellar markers (for mitochondria, peroxisomes, endoplasmic reticulum (ER), and Golgi). It was confirmed that V5 tag antibodies recognize specifically mBCO2-V5 protein in transfected HEK293F cells (FIG. 12A-12F). For nuclear labeling, DAPI nuclear stain was used. […]

[3] = Spectroscopic (UV/Vis) determination of the concentration of xanthophylls in LUVs; format: physicochemical
Experimental: The concentrations of xanthophylls were measured using a 2 mm optical path quartz cell in an Agilent Cary 60 UV-Vis spectrophotometer. To measure the concentration of xanthophylls in LUVs, a 10 μL aliquot is mixed with 300 μL of DMF. Standards and samples were measured at least 3 times and the data were averaged.

mBCO2 [4] = biological target: T1, mBCO2; conditions: earlier work [34]; cited from earlier work
mBCO2 [5] = biological target: T1, mBCO2; conditions: HEK293F cells, earlier work [34]; cited from earlier work
HEK293F cells = assay: Tween 40 delivery: effect on HEK293F cells; format: cell-based, human; conditions: higher concentration of Tween 40 (0.1%)
From the text: as §1

percent of colocalization of mBCO2 with nuclear marker (mBCO2 [2]): higher
final concentration of xanthophyll in LUVs measured by UV/Vis ([3]; DMPC/DMPS LUVs): 0.0125 g/L
Compound: CC1=C[C@H](O)CC(C)(C)[C@H]1/C=C/C(C)=C/C=C/C(C)=C/C=C/C=C(C)/C=C/C=C(C)/C=C/C1=C(C)C[C@@H](O)CC1(C)C [lutein]
mBCO2 palmitoylation (protein band in HAM-treated sample) (mBCO2 [1]; 0.06 μM lutein in DMPC/DMPS): no protein band was detected in the HAM-treated sample; also recorded: residual mBCO2 palmitoylation is seen in some samples
mBCO2 palmitoylation (protein band in HAM-treated sample) (mBCO2 [1]; 0.15 μM lutein in DMPC/DMPS): no protein band was detected in the HAM-treated sample
percent colocalization of BCO2 in the nucleus (mBCO2 [2]; lower concentration of lutein (0.06 μM) versus 0.15 μM): decreased in a lutein concentration-dependent manner

percent of colocalization of mBCO2 with nuclear marker (mBCO2 [2]): higher
final concentration of xanthophyll in LUVs measured by UV/Vis ([3]; DMPC/DMPS LUVs): 0.07 g/L
Compound: CC(/C=C/C=C(C)/C=C/[C@@]12O[C@]1(C)C[C@@H](O)CC2(C)C)=C\C=C\C=C(C)\C=C\C=C(C)\C=C\[C@@]12O[C@]1(C)C[C@@H](O)CC2(C)C [violaxanthin]
mBCO2 palmitoylation (protein band in HAM-treated sample) (mBCO2 [1]; 0.6 μM, DMPC/DMPS-encapsulated): residual mBCO2 palmitoylation is seen in some samples

More lines, now with the values behind:

Compound: CC1=C(/C=C/C(C)=C/C=C/C(C)=C/C=C/C=C(C)/C=C/C=C(C)/C=C/C2=C(C)C[C@@H](O)CC2(C)C)C(C)(C)C[C@H](O)C1 [zeaxanthin]
mBCO2 palmitoylation (protein band in HAM-treated sample) (mBCO2 [1]; 0.45 μM, DPPC/DPPS-encapsulated): residual mBCO2 palmitoylation is seen in some samples
final concentration of xanthophyll in LUVs measured by UV/Vis ([3]; DMPC/DMPS LUVs): 0.14 g/L
final concentration of xanthophyll in LUVs measured by UV/Vis ([3]; DPPC/DPPS LUVs): 0.038 g/L

Compound: CC1=C(/C=C/C(C)=C/C=C/C(C)=C/C=C/C=C(C)/C=C/C=C(C)/C=C/C2=C(C)CCCC2(C)C)C(C)(C)CCC1 [β-carotene]
mBCO2 colocalization with the nuclear DAPI stain (mBCO2 [4]): mBCO2 colocalization with the nuclear DAPI stain was observed
mBCO2 palmitoylation in presence of substrate (mBCO2 [5]): loses palmitoylation

Compound: Tween 40 [reference compound]
effect on HEK293F cells (HEK293F cells): led to HEK293F cell apoptosis
effect on mBCO2 membrane association in Acyl-RAC assay (mBCO2 [1]; lower concentration of Tween 40 (0.01%)): eluted mBCO2 from membranes during the Acyl-RAC assay even without hydroxylamine treatment
